Assay: Stability test: remaining NBPT content on treated granulated urea after storage (HPLC)
Assay type: physicochemical
Details: storage at 40° C., 50% humidity, up to 90 days
Experimental: The sample was prepared by mixing 6.00 g of TMBPA and 8.11 g of NBPT (98% purity) in 15.89 g of Augeo® SL 191 at a temperature of 25° C. The concentration of TMBPA was 20% and the concentration of NBPT was 26.5%. Then, the solution prepared was sprayed onto 50 g of granulated urea at a dosage of 0.3% of urea weight.
For stability tests, the treated granulated urea was kept at 40° C. and an atmospheric humidity of 50% for 30 days, 60 days and 90 days, respectively. The remaining NBPT content (expressed as percentages based on initial NBPT content) was measured by using HPLC analysis according to the standard procedure.

Compound: CCCCNP(N)(N)=S [NBPT, N-(n-butyl)thiophosphoric acid triamide]
- stability of NBPT after application to the urea fertilizer (in words): poor stability
